Reference: patent US8440442B2, “Method of assaying 5-FU” (Myriad Genetics, Inc, priority 2009, dated 2013)

Legend:
[1] = biological target: T1, dihydropyrimidine dehydrogenase (DPD) (Homo sapiens, UniProt Q12882); assay: 5-Vinyluracil, 5-iodouracil and gimeracil as stabilizer of 5-FU in spiked donor blood; format: biochemical; settings: 500 ng/mL 5-FU; 5-iodouracil 10/40 μg/mL, 5-vinyluracil 5/20 μg/mL, gimeracil 300/1,200 ng/mL; 45 minutes room temperature (FIG. 3)
T1 construct: from tissue; host or cells: donor whole blood (K2EDTA), plasma separated from it, and WBC/buffy coat
T1 sequence (Q12882 4-1025): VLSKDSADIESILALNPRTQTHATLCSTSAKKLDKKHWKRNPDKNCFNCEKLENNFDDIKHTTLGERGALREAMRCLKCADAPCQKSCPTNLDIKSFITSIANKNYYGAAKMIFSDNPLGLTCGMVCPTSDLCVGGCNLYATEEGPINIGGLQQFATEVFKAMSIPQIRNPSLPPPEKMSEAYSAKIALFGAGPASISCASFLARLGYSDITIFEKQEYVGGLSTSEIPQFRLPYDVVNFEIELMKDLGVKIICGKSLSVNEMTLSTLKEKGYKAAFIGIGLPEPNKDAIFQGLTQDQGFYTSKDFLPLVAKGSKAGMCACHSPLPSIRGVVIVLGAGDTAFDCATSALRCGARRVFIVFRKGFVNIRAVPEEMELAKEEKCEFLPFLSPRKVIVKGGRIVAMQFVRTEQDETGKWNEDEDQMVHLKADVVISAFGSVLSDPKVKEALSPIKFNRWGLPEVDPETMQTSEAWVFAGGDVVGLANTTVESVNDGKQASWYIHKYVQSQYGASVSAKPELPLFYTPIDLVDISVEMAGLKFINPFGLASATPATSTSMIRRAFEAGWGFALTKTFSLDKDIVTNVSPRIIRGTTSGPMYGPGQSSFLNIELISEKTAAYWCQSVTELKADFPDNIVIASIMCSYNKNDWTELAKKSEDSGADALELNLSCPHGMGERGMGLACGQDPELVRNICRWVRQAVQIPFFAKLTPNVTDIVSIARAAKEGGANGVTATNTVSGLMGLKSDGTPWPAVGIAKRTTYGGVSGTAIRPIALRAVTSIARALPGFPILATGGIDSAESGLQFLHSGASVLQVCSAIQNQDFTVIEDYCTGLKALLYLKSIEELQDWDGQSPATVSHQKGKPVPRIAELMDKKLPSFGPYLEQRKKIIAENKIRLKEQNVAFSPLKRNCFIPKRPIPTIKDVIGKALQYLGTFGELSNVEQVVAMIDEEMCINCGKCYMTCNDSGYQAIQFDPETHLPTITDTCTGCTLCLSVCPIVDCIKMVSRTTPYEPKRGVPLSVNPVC
Description: (§1) In the following illustrative examples, 5-FU was measured using an antibody-based agglutination assay on the Olympus AU680 Analyzer using an antibody disclosed in U.S. Pat. No. 7,205,116. Specifically, the concentration of 5-FU in a sample is determined based on the absorbance of a sample, which is determined by the amount of aggregation by the nanoparticles. The system requires two reagents, which when mixed in the absence of free 5-FU will form large aggregates of nanoparticles and scatter light to result in a higher absorption value. In the presence of free 5-FU, the agglutination reaction becomes somewhat inhibited and scattering of light is less, causing a lower absorption value. The instrument is calibrated twice monthly, and a curve is generated (Absorbance vs. 5-FU concentration). Absorbance values from individual samples are compared against this curve to determine concentration.
(§2) Generally in the agglutination assay, 95 μl of a buffer containing 5-FU-labeled amino-dextran is pipetted to a cuvette, followed by 7 μL of a filtered plasma sample. The sample and reagent are mixed and then incubated for about 3.5 minutes. 95 μl of 5-FU antibody-conjugated nanoparticles is pipetted into the cuvette and mixed. The complete reaction incubates for about 6.2 minutes. A series of 27 measurements at 600 nm are taken at regular intervals by the AU680 analyzer throughout this process, and 5-FU concentration is calculated using the measurements from two specific time points.
Three tubes of blood (spray-on K2EDTA tubes, 10 mL) was drawn from each of six donors, and blood tubes were gently inverted several times to mix anti-coagulant. Blood was pooled and kept separate by donor. An aliquot of each blood sample was transferred to a new conical tube, and a calculated volume of stock 5-FU (at 200 ng/μL) was spiked into each blood sample for a final concentration of 500 ng/mL 5-FU. Each blood sample was aliquotted to a set of four tubes (5 mL blood per tube). Each set of tubes was different, but included a combination of the conditions below: […]

[2] = biological target: T1, dihydropyrimidine dehydrogenase (DPD); assay: Low concentrations of gimeracil in 5-FU spiked blood, plasma 5-FU initial and after 24 hr; format: biochemical; settings: for 5-FU concentration, Initial / 5-FU concentration, 24 hr: blood spiked 500 ng/mL 5-FU; for 5-FU concentration, Initial: after plasma collection; for 5-FU concentration, 24 hr: plasma 24 hours at room temperature
Description: as §1, §2
Four tubes of blood (spray-on K2EDTA tubes, 10 mL) was drawn from each of five donors, and gently inverted several times to mix anti-coagulant. Blood was pooled by donor into conical tubes. An aliquot of each donor's blood was transferred to a clean tube. A calculated volume of 5-FU stock (at 200 ng/μL) was added to each blood sample to achieve a final concentration of 500 ng/mL 5-FU, and tubes were inverted to mix. Spiked blood was aliquotted into clean tubes, nine tubes per donor and 3.5 mL of blood per tube. Gimeracil was added to the tubes at a final concentration of 200, 400, or 600 ng/mL for each tube. In addition, in control samples, methanol was added to the blood instead of gimeracil, in order to serve as a negative control. The blood tubes sat at room temperature for 45 minutes after the addition of the gimeracil or methanol. At the appropriate times, the blood tubes were centrifuged at 2000×g for 10 minutes at room temperature to separate plasma. Plasma was aspirated immediately after centrifugation, and the plasma was dispensed into clean tubes. Plasma samples were run using standard conditions for Olympus AU680 analyzer (200 μL, spin for 15 minutes at 12,500 rpm). Measurements of 5-FU concentration were taken after plasma collection (“initial”) and 24 hours (“24 hr”) thereafter. For the 24 hr measurement, plasma was stored at room temperature during the 24 hours. As shown in Table 2 and FIG. 4, low concentrations of gimeracil in blood is also effective at inhibiting DPD-mediated degradation of 5-FU. The overall percent difference in 5-FU concentration between the samples containing 200 ng/mL and 600 ng/mL gimeracil is less than 1%.

- stabilizing 5-FU in blood samples [1]: effective
- overall percent difference in 5-FU concentration between samples containing 200 ng/mL and 600 ng/mL gimeracil ([2]; 500 ng/mL 5-FU spiked blood): less than 1%
- 5-FU concentration, Initial ([2]; gimeracil 200 ng/mL): 518.7
- 5-FU concentration, 24 hr ([2]; gimeracil 200 ng/mL): 523.4
- 5-FU concentration, Initial ([2]; gimeracil 400 ng/mL): 523.0
- 5-FU concentration, 24 hr ([2]; gimeracil 400 ng/mL): 521.6
- 5-FU concentration, Initial ([2]; gimeracil 600 ng/mL): 519.5
- 5-FU concentration, 24 hr ([2]; gimeracil 600 ng/mL): 523.3
- inhibiting DPD-mediated degradation of 5-FU ([2]; low concentrations of gimeracil in blood (200, 400, 600 ng/mL), Table 2 and FIG. 4): effective
SMILES: Oc1cc(O)c(Cl)cn1 [Gimeracil, 5-chloro-2,4-dihydroxypyridine]
